Results published in the METLIN SMRT retention time set (Domingo-Almenara et al. 2019).

Assay: gradient 5% acetonitrile 3 min, to 50% in 2 min, to 85% in 15 min, held 3 min, 100 µL/min
Details: column: Zorbax Extend-C18 2.1 x 50 mm; eluents: water / acetonitrile, 0.1% formic acid
How it was run: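 Retention time was recorded from adduct peaks, which were picked computationally and each inspected manually. Pure standards ran in mixtures of ~100 molecules on HPLC coupled to a quadrupole time-of-flight mass spectrometer, in positive and negative ionization mode, through a Zorbax Extend-C18 column (2.1 × 50 mm, 1.8 μm) at 100 μL/min. Eluents were water and acetonitrile, each with 0.1% formic acid.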

Row | Structure (SMILES) | RP-LC retention time [s]
1 | CC(=O)N1CCCc2cc(S(=O)(=O)CCC(=O)N3CCN(c4cccc(C)c4)C(C)C3)ccc21 (stereo not given) | 750
2 | Cc1[nH]c2ccccc2c1C(=O)C(=O)NC1CCCCC1 | 798
3 | CCCN1CCN(C(=O)C(CC)n2c3ccccc3c3cnn(C)c(=O)c32)CC1 (stereo not given) | 618
4 | COC(=O)c1cc2c(=O)n(-c3nccs3)ccc2nc1C | 896
5 | CC1=NS(=O)(=O)N(Cc2ccccc2)C=C1C(=O)OCc1noc(-c2cccc(Cl)c2)n1 | 1130
6 | Cc1nn(-c2ccccc2)c(C)c1S(=O)(=O)N1CCC(C(=O)NCCc2ccccc2)CC1 | 812
7 | CC(C)c1ccc(NC(=O)C2CCN(S(C)(=O)=O)c3ccccc3O2)cc1 (stereo not given) | 930
8 | C=CCNC(=O)N1CC(=O)Nc2ccccc21 | 592
9 | CCc1nc2c(N)cccn2n1 | 597
10 | COc1ccc(-c2nnc3n2N=C(c2ccc([N+](=O)[O-])cc2)CS3)cc1OC | 723
11 | Cc1ccc(NC(=O)N2CCC(n3cnnc3C3CC3)C2)c(Cl)c1 (stereo not given) | 663
12 | CSc1ccccc1NC(=O)C(=O)NCC1(CO)CC1 | 727
13 | O=C(CN1C(=O)C2CCCCN2c2ccc(S(=O)(=O)N3CCCC3)cc21)NCc1cccnc1 (stereo not given) | 646
14 | Cc1cc(C)n(-c2cc(Nc3ccc(F)cc3)ncn2)n1 | 1010
15 | Cc1ccc(CNC(=O)N(C)CCc2noc(COc3cccc(C)c3)n2)cc1 | 956
16 | CC(C)c1ccc(S(=O)(=O)N2CC=C(c3cn(C)c4ncccc34)CC2)cc1 | 1130
17 | CCOc1cc(C(=O)N2CCNC(=O)C2C)cc(OCC)c1OCC (stereo not given) | 638
18 | CCNc1cc(N2CCC(CCC(=O)NCCc3cccs3)CC2)ncn1 | 570
19 | Cc1ccc(N2CC(c3noc(-c4ccc(Cl)cc4)n3)CC2=O)cc1 (stereo not given) | 1110
20 | CCN1c2cc(Cl)ccc2C(=O)NC12CCN(C(=O)Nc1ccc3c(c1)OCO3)CC2 | 826
21 | CCSc1nnc(NC(=O)C2CCC(=O)N2S(=O)(=O)c2ccc(C)cc2)s1 (stereo not given) | 855
22 | CC(=O)NCCCCCCNC(C)=O | 604
23 | Cc1sc(C)c(S(=O)(=O)NCc2ccccc2Cl)c1-c1cc(C(F)(F)F)on1 | 653

Row | Structure (SMILES) | RP-LC retention time [s]
24 | O=C(Nc1ccccn1)c1ccc(S(=O)(=O)NC2CCCC2)cc1 | 722
25 | CCC(C)(C)C(=O)N1CCCN(C2=NS(=O)(=O)C(c3ccc(C)cc3)=C2C)CC1 | 915
26 | COc1ccc(-c2noc(Cc3nnc(-c4ccc(C)c(F)c4)o3)n2)cc1OC | 996
27 | CCCCNC(=O)Cc1c(OC)ccc2cc(Br)ccc12 | 947
28 | COc1ccc(Cl)cc1NC(=O)c1cnc(N2CCN(c3ncccn3)CC2)c2ccccc12 | 1090
29 | O=C(NCCn1c(-c2ccccc2)nc2cccnc21)Nc1ccccc1 | 674
30 | O=C(NCc1n[nH]c(=O)c2ccccc12)c1ccc([N+](=O)[O-])o1 | 606
31 | CCc1cnn2c(NCc3ccc[n+]([O-])c3)cc(N3CCCC[C@H]3CCO)nc12 | 637
32 | CCCNC(=O)C1CCN(c2ccc(SCC(=O)Nc3ccccc3OCC)nn2)CC1 | 621
33 | CCc1noc2nc(CCC(=O)NCCCN3CCN(C)CC3)nc(N3CCCCC3)c12 | 599
34 | CN(CCc1noc(COc2ccccc2F)n1)C(=O)Nc1ccc(F)c(Cl)c1 | 966
35 | CCN1C(=O)c2cccnc2Sc2cc(NC(=O)c3ccc(Br)o3)ccc21 | 842
36 | Cc1ccc(NC(=O)c2cn(-c3cc(N(C)C)ncn3)cn2)cc1F | 884
37 | COc1cc(NC(=O)C2(C)CCCCC(=O)N2)cc(OC)c1 (stereo not given) | 612
38 | CCC(=O)N(C1CCOCC1)C1CCN(S(=O)(=O)c2cccc(C)c2)CC1 | 836
39 | CC1CCN(C(=O)c2cn(-c3ccc(-c4nc(C5CC5)no4)cn3)cn2)CC1 | 912
40 | Cc1ccc(NS(=O)(=O)c2cc(-c3[nH]ncc3C(=O)N(C)C)oc2C)c(F)c1 | 678
41 | COc1cc(OC)cc(C(=O)N2CCc3cn(C)c4cccc(c34)C2)c1 | 952
42 | O=C(c1cc(-c2ccncc2)n[nH]1)N1CCC(C(=O)N2CCc3ccccc3C2)CC1 | 614
43 | Cc1ccc(S(=O)(=O)N2CCc3nc(-c4ccc(Cl)cc4)ncc3C2)cc1 | 1150
44 | O=C(Cn1cnc2nc(N3CCC(C(=O)NC4CC4)CC3)sc2c1=O)Nc1cc(F)cc(F)c1 | 694
45 | CCc1nc2cc(N3CCC(C(=O)NCc4cc(F)ccc4F)CC3)cnc2nc1CC | 838
46 | CC(=O)N1CCc2ccc(NS(=O)(=O)CCN3C(=O)CCCC3=O)cc21 | 615

Row | Structure (SMILES) | RP-LC retention time [s]
47 | CC1CC(=O)N(CC(=O)Nc2ccc3c(c2)OCCO3)c2ccccc2S1 (stereo not given) | 859
48 | Cc1ccccc1CNS(=O)(=O)c1cn(CC(C)C)c2ncccc12 | 763
49 | COc1cccc(N2C(=O)c3ccccc3C2C(=O)NC2CCCC2)c1 (stereo not given) | 775
50 | COc1ccc(-c2ncc3c(n2)CCN(S(=O)(=O)Cc2ccc(C)cc2)C3)cc1 | 1050
51 | CCCCCC(=O)N1CCCCC1 | 909
52 | O=C([C@@H]1C[C@H](F)CN1S(=O)(=O)c1cc(F)ccc1F)N1CCCCC1 | 794
53 | CCOC(=O)c1ccc2nc(C(F)(F)F)nc(NC(C)CCc3ccccc3)c2c1 (stereo not given) | 1360
54 | COc1ccc(CNC(=O)Cc2nnc(-c3ccc4ncccc4c3)o2)c(OC)c1 | 841
55 | O=C(NC1CC1)c1ccc(CN2CCN(Cc3ccccc3)C(=O)C2=O)cc1 | 1240
56 | COc1ccc(S(=O)(=O)N2CCc3c(c(-c4nnc(-c5ccccc5)o4)nn3C)C2)cc1Cl | 990
57 | Cc1nc(N2CCOCC2)c2c(C(=O)NCc3ccc(F)cc3)c(C)oc2n1 | 702
58 | CCC(C)NC(=O)CC1CCN(C(=O)c2[nH]c(C)c(C(=O)OC)c2C)CC1 (stereo not given) | 663
59 | Cc1nc(-c2ccc(C(=O)N3CCOCC3)cc2)no1 | 635
60 | CNCC[C@H](Oc1ccc(C(F)(F)F)cc1)c1ccccc1 | 818
61 | CCNC(=O)C1CCCN(c2nc3ncn(CC(=O)Nc4cc(F)cc(F)c4)c(=O)c3s2)C1 (stereo not given) | 688
62 | O=C(Nc1cccc(F)c1)C(=O)c1cn(CC(=O)N2CCOCC2)c2ccccc12 | 902
63 | O=C(COc1ccc(Cl)cc1Cl)NC1CC(=O)N(C2CC2)C1 (stereo not given) | 701
64 | CCOc1ccc(C(=O)NCc2c(C)noc2C)cc1OCC | 757
65 | Cc1ccc(C(=O)Nc2cccc(C(F)(F)F)c2)cc1Nc1nc(-c2cccnc2)nc2c1cnn2C | 788
66 | CCc1cc(C(=O)N2CCN(CC)CC2)nc2cc(-c3ccccn3)nn12 | 580
67 | CC1CCN(CCCNC(=O)C2CCN(S(=O)(=O)c3ccc4c(c3)sc(=O)n4C)CC2)CC1 | 1060
68 | CCOC(=O)c1[nH]c(C)c(CCC(=O)N2CCC(C(=O)NCc3ccc(C)o3)CC2)c1C | 739
69 | Cc1cc(=O)n(CCOc2ccc(F)cc2)c(N2CCSCC2)n1 | 898

Row | Structure (SMILES) | RP-LC retention time [s]
70 | CCN1CCN(c2ccc(NC(=O)c3ccc(C(F)(F)F)cc3)cn2)C1=O | 823
71 | COc1ccccc1CCC(=O)N1C[C@@H]2C[C@H](NC(=O)c3ccccc3)[C@H]1C2 | 816
72 | CCn1cc(-c2nc(C)c(C(=O)Nc3ccc(C(=O)OC)cc3)s2)c2cccnc21 | 1020
73 | CN1C(=O)C(C)(C)N(Cc2ccccc2)c2ccccc21 | 1080
74 | CN(CCNc1nc(-c2ccc(Cl)cc2)nc2ccccc12)C1CCCCC1 | 642
75 | CCN1C(=O)Cc2ccccc2C1C(=O)NCc1ccco1 (stereo not given) | 690
76 | CCN(CC)C(=O)N1CC(Cn2c(C)cnc2-c2ccncc2)C1 | 568
77 | Cc1[nH]c(C(=O)NCc2ccccc2Cl)c(C)c1S(=O)(=O)N1CCCC1 | 866
78 | CN(C)C(=O)c1cc2c(s1)CCC(C(=O)NCCc1ccccn1)C2 (stereo not given) | 560
79 | CCc1noc(NC(C)=O)c1-c1ccc(OC)c(S(=O)(=O)NC2CCCC2)c1 | 801
80 | Cc1cc(C(=O)Nc2cccc(Cl)c2)nc2ccnn12 | 988
81 | COc1ccccc1CCc1nc(-c2ccc3oc(C)nc3c2)no1 | 1210
82 | Cc1cc(-c2nnc(C3CCC3)o2)c(C)n1CC(=O)Nc1cccc(Cl)c1 | 960
83 | COc1ccc(NC(=O)c2cc3c(=O)n(CC(C)C)c4ccccc4n3n2)c(C)c1 | 1090
84 | O=C(C1CCN(Cc2cc3ccccc3n2Cc2ccccc2)CC1)N1CCOCC1 | 683
85 | COc1cc(-n2c(C)nc3cc(C(=O)NCC4CCCO4)ccc32)cc(OC)c1OC (stereo not given) | 631
86 | COc1cc(OC)cc(N2C=C(C#N)S(=O)(=O)c3c(F)cccc32)c1 | 906
87 | CCCCN(C)C(=O)Cn1nc(C)c2c(C)n(-c3ccccc3)nc2c1=O | 787
88 | COc1ccc2[nH]cc(CCNC(=O)c3cc(S(=O)(=O)N4CCSCC4)ccc3Cl)c2c1 | 880
89 | Cn1cnnc1SCCNC(=O)C1CN(c2nc3ccccc3s2)C1 | 573
90 | O=C(Nc1ccc(Cl)cc1)N1CCC(N2CCN(Cc3ccccc3)C(=O)C2=O)CC1 | 764
